These results are taken from patent publication US8778685B2 (priority 2009, dated 2014).

The conditions of data set [1]: no unit, species or route given; in mg/kg; cited from earlier work.
For data set [2] the following is noted: in vivo.

For the compound `CC(C)(O)C#N` [acetone cyanohydrin], in data set [1], the LD50 value was 18.65. As for `N#CC(O)c1ccccc1` (stereo not drawn) [mandelonitrile], the LD50 value in data set [1] is 116. Also, the “times less toxic than sodium cyanide” value in data set [2] was “approximately 18”.
